Data published in patent US20050075375A1 (priority 2003, published 2005).
Like-named read-outs stand apart in the source and are kept apart here.

Tested on: monocistronic NK5.1 HCV replicon in Huh7 cells
Test: HCV replicon assay, monocistronic replicon cell line
Type: cell-based, hepatitis C virus
Settings: Hepatitis C virus, read-out: Mono EC50 Median
Procedure, shortened: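 EC50 derives from the HCV RNA/GAPDH RNA ratio by one-step TaqMan RT-PCR, relative to DMSO-only wells. Compounds (six half-log concentrations, 0.6% DMSO) were incubated 3 days at 37 °C with NK5.1 monocistronic replicon Huh7 cells plated a day earlier.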

[1] = Huh-7, 72 h, Table 1, monocistronic replicon in Huh7 cells, 3 days incubation, HCV RNA/GAPDH RNA by TaqMan RT-PCR
[2] = Huh-7, monocistronic NK5.1 HCV replicon in Huh7 cells, median value
[3] = Huh-7, 72 h, table T3 (compounds 471-640), monocistronic replicon in Huh7 cells, 3 days incubation, HCV RNA/GAPDH RNA by TaqMan RT-PCR

| SMILES | EC50 [1] [µM] | EC50 [2] [µM] | EC50 [3] [µM] |
| --- | --- | --- | --- |
| COc1ccc(O)c(-c2ccn(Cc3nccc(OC)c3OC)n2)c1 [Compound 105, 2-[1-(3,4-Dimethoxy-pyridin-2-ylmethyl)-1H-pyrazol-3-yl]-4-methoxy-phenol] | > 32 | – | – |
| O=[N+]([O-])c1ccc(O)c(-c2nc(-c3nccc4ccccc34)n[nH]2)c1 [Compound 368, 4-Nitro-2-(5-isoquinolin-1-yl-2H-[1,2,4]triazol-3-yl)-phenol] | – | > 32 | – |
| Oc1ccc2ccccc2c1-c1nc(-c2ccc(C(F)(F)F)cn2)n[nH]1 [Compound 525, 1-[5-(5-trifluoromethyl-pyridin-2-yl)-2H-[1,2,4]triazol-3-yl]-naphthalen-2-ol] | – | – | > 19 |
| COc1ccc(F)c(-c2nc(-c3ncccc3C)n[nH]2)c1 [Compound 459, 2-[5-(2-Fluoro-5-methoxy-phenyl)-1H-[1,2,4]triazol-3-yl]-3-methyl-pyridine] | – | > 32 | – |
| COc1ccc(OC)c(-c2nc(-c3ccc(C(F)(F)F)cn3)no2)c1 [Compound 214, 2-[5-(2,5-Dimethoxy-phenyl)-[1,2,4]oxadiazol-3-yl]-5-trifluoromethyl-pyridine] | 18 | 18 | – |
| Brc1cccnc1-c1n[nH]c(-c2cccc3ccccc23)n1 [Compound 483, 3-Bromo-2-(5-naphthalen-1-yl-1H-[1,2,4]triazol-3-yl)-pyridine] | – | – | > 32 |
| c1ccc2c(-c3nc(-c4nccc5ccccc45)n[nH]3)cccc2c1 [Compound 366, 1-(5-Naphthalen-1-yl-1H-[1,2,4]triazol-3-yl)-isoquinoline] | – | > 32 | – |
| Cc1cccnc1-c1noc(-c2cccc(NC(=O)OC(C)(C)C)c2O)n1 [Compound 298] | – | 0.62 | – |
| Oc1ccccc1-c1nc(-c2cnccc2C(F)(F)F)n[nH]1 [Compound 422, 2-[5-(4-trifluoromethyl-pyridin-3-yl)-2H-[1,2,4]triazol-3-yl]-phenol] | – | > 19 | – |
| Cc1cccnc1-c1noc(-c2cc(C3OCC(C)(C)CO3)ccc2O)n1 [Compound 297, 4-(5,5-Dimethyl-[1,3]dioxan-2-yl)-2-[3-(3-methyl-pyridin-2-yl)-[1,2,4]oxadiazol-5-yl]-phenol] | – | 0.43 | – |
| Oc1cc(OCc2ccccc2)ccc1-c1nc(-c2ccc(C(F)(F)F)cn2)n[nH]1 [Compound 513, 5-Benzyloxy-2-[5-(5-trifluoromethyl-pyridin-2-yl)-2H-[1,2,4]triazol-3-yl]-phenol] | – | – | > 19 |
| COc1ccc(-c2nc(-c3ccc(C(F)(F)F)cn3)no2)c(O)c1OC [Compound 265, 2,3-Dimethoxy-6-[3-(5-trifluoromethyl-pyridin-2-yl)-[1,2,4]oxadiazol-5-yl]-phenol] | – | 28.5 | – |
| Brc1ccccc1-c1nc(-c2ccccn2)n[nH]1 [Compound 431, 2-[5-(2-Bromo-phenyl)-1H-[1,2,4]triazol-3-yl]-pyridine] | – | > 19 | – |
| Oc1ccc(O)c(-c2nc(-c3ncccn3)n[nH]2)c1 [Compound 572, 4-Hydroxy-2-(5-pyrimidin-2-yl-2H-[1,2,4]triazol-3-yl)-phenol] | – | – | > 32 |
| Oc1c(Br)cc(Br)cc1-c1nc(-c2cnccn2)n[nH]1 [Compound 590, 2,4-Dibromo-6-(5-pyrazin-2-yl-2H-[1,2,4]triazol-3-yl)-phenol] | – | – | 14 |
| COc1ccc(O)c(-c2ccn(-c3ncccc3C(=O)N3CCCCC3)n2)c1 [Compound 104, {2-[3-(2-Hydroxy-5-methoxy-phenyl)-pyrazol-1-yl]-pyridin-3-yl}-piperidin-1-yl-methanone] | > 32 | – | – |
| CCN(CC)c1ccc(-c2nc(-c3ncccc3Br)n[nH]2)c(O)c1 [Compound 498, 2-[5-(3-Bromo-pyridin-2-yl)-2H-[1,2,4]triazol-3-yl]-5-Diethylamino-phenol] | – | – | 5.8 |
| Cn1nc(-c2ccccn2)nc1-c1cc(Br)cc(Br)c1O [Compound 626, 4,6-Dibromo-2-(2-methyl-5-pyridin-2-yl-2H-[1,2,4]triazol-3-yl)-phenol] | – | – | 4.8 |
| Cc1cccc(-c2n[nH]c(-c3cc(Br)ccc3O)n2)n1 [Compound 399, 4-Bromo-2-(5-(6-methyl-pyridin-2-yl)-2H-[1,2,4]triazol-3-yl)-phenol] | – | > 19 | – |
| COc1ccc(-c2ccnn2-c2ccccn2)c(F)c1 [Compound 54, 2-[5-(2-Fluoro-4-methoxy-phenyl)-pyrazol-1-yl]-pyridine] | 2.2 | – | – |
| COc1ccc(-n2nc(-c3c(O)ccc4ccccc34)cc2C)cc1 [Compound 8] | > 19 | – | – |
| COc1ccc(O)c(-c2nc(-c3ccc(C(F)(F)F)cn3)no2)c1 [Compound 224, 4-Methoxy-2-[3-(5-trifluoromethyl-pyridin-2-yl)-[1,2,4]oxadiazol-5-yl]-phenol] | 3.2 | 3.2 | – |
| COc1ccc(-c2ccn(-c3ncccc3C)n2)c(OCc2ccccc2)c1 [Compound 92, 2-[3-(2-Benzyloxy-4-methoxy-phenyl)-pyrazol-1-yl]-3-methyl-pyridine] | 5.2 | – | – |

| SMILES | EC50 [1] [µM] | EC50 [2] [µM] | EC50 [3] [µM] |
| --- | --- | --- | --- |
| CC(=O)Nc1ccc(-c2n[nH]c(-c3cc(Br)ccc3O)n2)nc1 [Compound 593, N-{6-[5-(5-Bromo-2-hydroxy-phenyl)-1H-[1,2,4]triazol-3-yl]-pyridin-3-yl}-acetamide] | – | – | 48.7 |
| Oc1ccc2ccccc2c1-c1nnc(-c2ncccc2C(F)(F)F)o1 [Compound 338, 1-[5-(3-Trifluoromethyl-pyridin-2-yl)-[1,3,4]oxadiazol-2-yl]-naphthalen-2-ol] | – | > 19 | – |
| Cc1cccnc1-c1noc(-c2cccc(C)c2O)n1 [Compound 293, 2-Methyl-6-[3-(3-methyl-pyridin-2-yl)-[1,2,4]oxadiazol-5-yl]-phenol] | – | 1.7 | – |
| COc1ccccc1-c1ccn(-c2ccccn2)n1 [Compound 39, 2-[3-(2-Methoxy-phenyl)-pyrazol-1-yl]-pyridine] | > 32 | – | – |
| O=[N+]([O-])c1cccnc1-c1noc(-c2cc(Br)ccc2O)n1 [Compound 155, 4-Bromo-2-[3-(3-nitro-pyridin-2-yl)-[1,2,4]oxadiazol-5-yl]-phenol] | > 19 | – | – |
| Cc1cc(-c2ccc3ccccc3c2O)nn1-c1ccccc1[N+](=O)[O-] [Compound 12, 2-[5-Methyl-1-(2-nitro-phenyl)-1H-pyrazol-3-yl]-naphthalen-1-ol] | 13 | – | – |
| COc1ccc(-c2ccn(-c3ncccc3C)n2)c(O)c1OC [Compound 119, 2,3-Dimethoxy-6-[1-(3-methyl-pyridin-2-yl)-1 H-pyrazol-3-yl]-phenol] | 11.8 | – | – |
| Cc1cccnc1-c1n[nH]c(-c2cccc(Br)c2)n1 [Compound 505, 2-[5-(3-Bromo-phenyl)-1H-[1,2,4]triazol-3-yl]-3-methyl-pyridine] | – | – | 4 |
| Cn1nc(-c2ncccc2C(F)(F)F)nc1-c1cc(Br)ccc1O [Compound 633, 4-Bromo-2-[2-methyl-5-(3-trifluoromethyl-pyridin-2-yl)-2H-[1,2,4]triazol-3-yl]phenol] | – | – | 3.6 |
| COc1cccc(-c2nc(-c3nccc4ccccc34)no2)c1O [Compound 209, 2-(3-Isoquinolin-1-yl-[1,2,4]oxadiazol-5-yl)-6-methoxy-phenol] | 7.4 | – | – |
| Cc1cccnc1-c1nc(-c2ccc(OCc3ccccc3)cc2O)n(C)n1 [Compound 611, 5-Benzyloxy-2-[2-methyl-5-(3-methyl-pyridin-2-yl)-2H-[1,2,4]triazol-3-yl]-phenol] | – | – | > 3.2 |
| Oc1ccccc1-c1nc(-c2cnccn2)n[nH]1 [Compound 585, 2-(5-pyrazin-2-yl-2H-[1,2,4]triazol-3-yl)-phenol] | – | – | > 32 |
| COc1ccc(F)c(-c2nc(-c3ccccn3)n[nH]2)c1 [Compound 388, 2-[5-(2-Fluoro-5-methoxy-phenyl)-1H-[1,2,4]triazol-3-yl]-pyridine] | – | > 19 | – |
| Oc1ccccc1-c1ccnn1-c1ccccc1F [Compound 35, 2-[2-(2-Fluoro-phenyl)-2H-pyrazol-3-yl]-phenol] | 14 | – | – |
| COc1ccc(-c2nc(-c3ncccn3)n[nH]2)c(O)c1 [Compound 568, 5-Methoxy-2-(5-pyrimidin-2-yl-2H-[1,2,4]triazol-3-yl)-phenol] | – | – | > 32 |
| COc1ccc(O)c(-c2nc(-c3ccccn3)no2)c1 [Compound 147, 4-Methoxy-2-(3-pyridin-2-yl-[1,2,4]oxadiazol-5-yl)-phenol] | 4.4 | – | – |
| Cc1cccnc1-c1noc(-c2cc(OCCc3ccccc3)ccc2O)n1 [Compound 273, 2-[3-(3-Methyl-pyridin-2-yl)-[1,2,4]oxadiazol-5-yl]-4-phenethyloxy-phenol] | – | > 19 | – |
| O=[N+]([O-])c1cccnc1-c1noc(-c2c(O)ccc3ccccc23)n1 [Compound 137, 1-[3-(3-Nitro-pyridin-2-yl)-[1,2,4]oxadiazol-5-yl]-naphthalen-2-ol] | 1.8 | – | – |
| Oc1ccccc1-c1nnc(-c2ncc(C(F)(F)F)cc2Cl)o1 [Compound 343, 2-[5-(3-Chloro-5-trifluoromethyl-pyridin-2-yl)-[1,3,4]oxadiazol-2-yl]-phenol] | – | 17 | – |
| COc1ccc(O)c(-c2nc(-c3cccc(C)n3)n[nH]2)c1 [Compound 394, 4-Methoxy-2-(5-(6-methyl-pyridin-2-yl)-2H-[1,2,4]triazol-3-yl)-phenol] | – | > 19 | – |
| Cc1cc(-c2ccc3ccccc3c2O)n(-c2ccc(Cl)cc2)n1 [Compound 19, 2-[2-(4-Chloro-phenyl)-5-methyl-2H-pyrazol-3-yl]-naphthalen-1-ol] | 17 | – | – |
| Nc1cccnc1-c1n[nH]c(-c2cc(Br)ccc2O)n1 [Compound 555, 2-[5-(3-amino-pyridin-2-yl)-2H-[1,2,4]triazol-3-yl]-4-bromo-phenol] | – | – | > 3.2 |
| O=[N+]([O-])c1cccnc1-c1noc(-c2cc(F)ccc2O)n1 [Compound 162, 4-Fluoro-2-[3-(3-nitro-pyridin-2-yl)-[1,2,4]oxadiazol-5-yl]-phenol] | 17 | – | – |
